Results reported in article PMC11329753, “Human mitochondrial carriers of the SLC25 family function as monomers exchanging substrates with a ping-pong kinetic mechanism” (The EMBO Journal, 2024).
Each block holds one molecule with its values, some of them ahead of it.

Key:
[1] = biological target: human citrate carrier (CIC, SLC25A1) (Homo sapiens, UniProt P53007); settings: labelled compound; internal citrate 0.10-1.00 mM, external 1.0-25 μM; 20 mM HEPES pH 7.0, 50 mM NaCl, 5 mM MgCl2
[2] = biological target: T1, human dicarboxylate carrier (DIC, SLC25A10) (Homo sapiens, UniProt Q9UBX3, INS1GKP); test: nanoDSF thermal shift; type: binding; settings: 10 mM malate; 20 mM HEPES pH 7.0, 50 mM NaCl, cardiolipin/LMNG; apo Tm 54.1 °C
T1 construct: GKP added at positions 2-4; N-terminal His8 tag with factor Xa site, tag removed by on-column Xa cleavage; codon-optimized, expressed in Saccharomyces cerevisiae BJ2168 mitochondria; purified in LMNG/cardiolipin; 31,923 Da; monomer
T1 sequence (Q9UBX3 with tags, fused parts or gaps INS1GKP): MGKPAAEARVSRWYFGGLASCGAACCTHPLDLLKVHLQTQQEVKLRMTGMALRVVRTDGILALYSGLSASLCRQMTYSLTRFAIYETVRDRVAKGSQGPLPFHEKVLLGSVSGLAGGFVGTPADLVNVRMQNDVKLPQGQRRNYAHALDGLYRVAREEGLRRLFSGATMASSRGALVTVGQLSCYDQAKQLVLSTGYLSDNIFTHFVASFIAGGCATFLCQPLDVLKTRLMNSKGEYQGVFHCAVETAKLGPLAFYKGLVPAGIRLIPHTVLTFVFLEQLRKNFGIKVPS

[3] = biological target: T2, human oxoglutarate carrier (OGC, SLC25A11) (Homo sapiens, UniProt Q02978); test: nanoDSF thermal shift; type: binding; settings: 10 mM malate; 20 mM HEPES pH 7.0, 50 mM NaCl, cardiolipin/LMNG; apo Tm 51.0 °C
T2 construct: residues 2-13 deleted; N-terminal His8 tag with factor Xa site, tag removed by on-column Xa cleavage; codon-optimized, expressed in Saccharomyces cerevisiae W303.1B mitochondria; purified in LMNG/cardiolipin; 33,477 Da; monomer
T2 sequence (Q02978 14-314): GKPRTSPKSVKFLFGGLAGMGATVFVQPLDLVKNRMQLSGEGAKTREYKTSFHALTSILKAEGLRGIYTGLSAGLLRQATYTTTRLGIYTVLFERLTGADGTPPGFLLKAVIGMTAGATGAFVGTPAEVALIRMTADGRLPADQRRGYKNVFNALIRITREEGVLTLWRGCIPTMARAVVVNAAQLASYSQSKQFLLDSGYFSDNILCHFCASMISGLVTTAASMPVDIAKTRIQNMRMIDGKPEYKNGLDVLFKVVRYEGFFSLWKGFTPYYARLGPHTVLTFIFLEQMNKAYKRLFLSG

[4] = biological target: T2, human oxoglutarate carrier (OGC, SLC25A11); test: […]-malate uptake into proteoliposomes, homo-exchange, Michaelis-Menten fit; type: biochemical; settings: labelled compound; internal malate 0.10-1.00 mM, external 0.5-20 μM; 20 mM HEPES pH 7.0, 50 mM NaCl, 5 mM MgCl2
[5] = biological target: T3, human aspartate/glutamate carrier 2 (AGC2, SLC25A13) (Homo sapiens, UniProt Q9UJS0); test: nanoDSF thermal shift; type: binding; settings: 10 mM aspartate; 20 mM HEPES pH 7.0, 50 mM NaCl, cardiolipin/LMNG; apo Tm 55.4 °C
T3 construct: N-terminal His8 tag with TEV site, tag removed by TEV cleavage; codon-optimized, expressed in Saccharomyces cerevisiae W303.1B mitochondria; purified in LMNG/cardiolipin; 74 kDa protomer, homodimer via N-terminal domains
T3 sequence (Q9UJS0 2-675): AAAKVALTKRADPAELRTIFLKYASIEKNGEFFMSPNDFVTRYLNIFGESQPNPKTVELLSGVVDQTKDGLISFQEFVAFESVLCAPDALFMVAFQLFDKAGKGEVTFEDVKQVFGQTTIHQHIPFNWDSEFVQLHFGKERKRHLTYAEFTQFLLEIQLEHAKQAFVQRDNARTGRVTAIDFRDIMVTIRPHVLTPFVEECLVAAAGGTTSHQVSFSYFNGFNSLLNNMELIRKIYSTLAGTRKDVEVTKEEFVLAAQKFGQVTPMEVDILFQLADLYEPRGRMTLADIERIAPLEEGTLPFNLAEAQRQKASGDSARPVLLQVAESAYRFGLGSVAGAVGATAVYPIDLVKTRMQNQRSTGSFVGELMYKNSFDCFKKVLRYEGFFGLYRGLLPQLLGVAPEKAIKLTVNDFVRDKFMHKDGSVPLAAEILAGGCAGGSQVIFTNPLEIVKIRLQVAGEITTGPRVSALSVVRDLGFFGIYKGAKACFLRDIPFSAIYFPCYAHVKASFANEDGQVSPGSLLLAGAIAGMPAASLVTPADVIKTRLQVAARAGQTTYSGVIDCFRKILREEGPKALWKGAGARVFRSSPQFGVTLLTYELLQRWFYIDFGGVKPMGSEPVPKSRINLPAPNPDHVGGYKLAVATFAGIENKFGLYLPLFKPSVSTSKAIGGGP

[6] = biological target: T3, human aspartate/glutamate carrier 2 (AGC2, SLC25A13); test: […]-aspartate uptake into proteoliposomes, homo-exchange, Michaelis-Menten fit; type: biochemical; settings: labelled compound; internal aspartate 0.10-1.00 mM, external 1.5-25 μM; 20 mM HEPES pH 7.4, 50 mM NaCl, 1 mM CaCl2
[7] = biological target: the molecule itself; test: SEC; 150 μL of purified carrier on Superdex 200 Increase 10/300 in buffer B (20 mM HEPES pH 7.0, 50 mM NaCl, 0.1 mg/mL tetraoleoyl cardiolipin/0.1% (w/v) lauryl maltose neopentyl glycol); sized against ferritin, aldolase, conalbumin and ovalbumin; total weight corrected for bound lipid/detergent (≈135 kDa)

human citrate carrier (CIC, SLC25A1), sequence (P53007 13-311): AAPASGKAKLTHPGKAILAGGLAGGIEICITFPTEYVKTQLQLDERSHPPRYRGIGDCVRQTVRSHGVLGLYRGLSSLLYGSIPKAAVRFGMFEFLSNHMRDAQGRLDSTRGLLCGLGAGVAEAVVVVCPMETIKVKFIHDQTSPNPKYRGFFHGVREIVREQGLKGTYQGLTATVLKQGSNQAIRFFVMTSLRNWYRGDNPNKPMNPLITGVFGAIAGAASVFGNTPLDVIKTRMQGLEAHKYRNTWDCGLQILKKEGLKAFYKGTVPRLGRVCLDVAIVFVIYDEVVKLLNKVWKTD

Molecule: O=C(O)CC(O)(CC(=O)O)C(=O)O [citrate]
apparent Km [1]: Km plotted against Vmax for the various chemical gradients for (C) OGC, (F) CIC

B1: human mitochondrial aspartate/glutamate carrier 2 (natural protein, UniProt Q9UJS0 1-675, looked up)
chain: MAAAKVALTKRADPAELRTIFLKYASIEKNGEFFMSPNDFVTRYLNIFGESQPNPKTVELLSGVVDQTKDGLISFQEFVAFESVLCAPDALFMVAFQLFDKAGKGEVTFEDVKQVFGQTTIHQHIPFNWDSEFVQLHFGKERKRHLTYAEFTQFLLEIQLEHAKQAFVQRDNARTGRVTAIDFRDIMVTIRPHVLTPFVEECLVAAAGGTTSHQVSFSYFNGFNSLLNNMELIRKIYSTLAGTRKDVEVTKEEFVLAAQKFGQVTPMEVDILFQLADLYEPRGRMTLADIERIAPLEEGTLPFNLAEAQRQKASGDSARPVLLQVAESAYRFGLGSVAGAVGATAVYPIDLVKTRMQNQRSTGSFVGELMYKNSFDCFKKVLRYEGFFGLYRGLLPQLLGVAPEKAIKLTVNDFVRDKFMHKDGSVPLAAEILAGGCAGGSQVIFTNPLEIVKIRLQVAGEITTGPRVSALSVVRDLGFFGIYKGAKACFLRDIPFSAIYFPCYAHVKASFANEDGQVSPGSLLLAGAIAGMPAASLVTPADVIKTRLQVAARAGQTTYSGVIDCFRKILREEGPKALWKGAGARVFRSSPQFGVTLLTYELLQRWFYIDFGGVKPMGSEPVPKSRINLPAPNPDHVGGYKLAVATFAGIENKFGLYLPLFKPSVSTSKAIGGGP
notes: human aspartate/glutamate carrier 2 (AGC2, SLC25A13), UniProt Q9UJS0; TEV site between the His8 tag and the protein; protomers printed as 74 kDa each; also called AGC2; SLC25A13; not shown: His8, N-terminal, cleaved
stoichiometry N [7]: 2

Continued, in another order:

thermal shift [2]: 2.5 °C
thermal shift [3]: 5.6 °C
Molecule: O=C(O)C[C@H](O)C(=O)O [malate]
apparent Km [4]: Km plotted against Vmax for the various chemical gradients for (C) OGC

thermal shift [5]: 1.6 °C
Molecule: N[C@@H](CC(=O)O)C(=O)O [aspartate]
apparent Km [6]: chemical gradients for (C) OGC, (F) CIC, (I) DIC, and (L) AGC2
